Experimental data from PMC3280214, “Structure Based Discovery of Small Molecules to Regulate the Activity of Human Insulin Degrading Enzyme” (PLoS ONE, 2012).

Tests used:
HeLa cells = test: Cell-based degradation of FITC-insulin; set-up: species or system human; details: for increase in magnitude of IDE activity for insulin degradation in HeLa cells: HeLa cells pre-loaded with FITC-insulin, 20 µM; for permeability through cell membrane: inferred from HeLa cell assay
Description: It was shown that HeLa cells express insulin receptor, and thus take FITC-labeled insulin inside and degrade it intracellularly, [21], [22]. First, FITC-insulin was added to the culture that contains HeLa cells and incubated for 2 hours in order to allow for sufficient uptake of FITC-insulin by HeLa cells. In order to ensure that FITC-labeled insulin is translocating into the cells through insulin uptake receptor, and that cytoplasmic IDE can degrade FITC- insulin, we conducted live cell imaging of HeLa cells, and recorded fluorescence. At various time points compounds, D3, D6, and D10, were added; and cells were washed with Hank's balanced salt solution (HBSS), the these cells were collected and lysed with appropriate buffer. After centrifugation, cell free extracts were used to measure the change in fluorescence by luminometer. […] Compound D10 increased in vivo proteolysis of FITC- insulin by about 32 fold with HeLa cells compared to control group (Fig. 3A). […] These findings are consistent with the data obtained by in vitro assay, showing enhanced degradation of insulin by D10 and D3 (Fig. 3A). […] This figure further verifies the significant increase in fluorescence observed in the presence of compound D10, which is consistent with our in vitro assay (Fig. 3B).
Cells were cultured at 37°C under a humidified atmosphere of 5% CO2 in medium supplemented with 10% fetal bovine serum. Then, FITC-insulin was added to cell medium and incubated for 2 h at 37°C. Next, compounds were loaded at different time intervals separately. Cells were washed with Hank's balanced salt solution (HBSS), then disrupted with 1× passive lysis buffer. Fluorescence was measured with a luminescence multi-label plate leader, and changes in fluorescence was imaged by fluorescence microscope at Burc Laboratory (Istanbul, Turkey).

mutant IDE (Gln363Ala) = biological target: T1, mutant IDE (Gln363Ala) (Homo sapiens, UniProt P14735, Q363A); test: FITC-insulin-mAb degradation by mutant IDE (Gln363Ala); assay type: biochemical; details: Gln363Ala vs wild type IDE; 20 µM D10
T1 construct: made in house; host or cells: E. coli (BL21 inferred, as for the wild type)
T1 sequence (P14735 1-1019 Q363A): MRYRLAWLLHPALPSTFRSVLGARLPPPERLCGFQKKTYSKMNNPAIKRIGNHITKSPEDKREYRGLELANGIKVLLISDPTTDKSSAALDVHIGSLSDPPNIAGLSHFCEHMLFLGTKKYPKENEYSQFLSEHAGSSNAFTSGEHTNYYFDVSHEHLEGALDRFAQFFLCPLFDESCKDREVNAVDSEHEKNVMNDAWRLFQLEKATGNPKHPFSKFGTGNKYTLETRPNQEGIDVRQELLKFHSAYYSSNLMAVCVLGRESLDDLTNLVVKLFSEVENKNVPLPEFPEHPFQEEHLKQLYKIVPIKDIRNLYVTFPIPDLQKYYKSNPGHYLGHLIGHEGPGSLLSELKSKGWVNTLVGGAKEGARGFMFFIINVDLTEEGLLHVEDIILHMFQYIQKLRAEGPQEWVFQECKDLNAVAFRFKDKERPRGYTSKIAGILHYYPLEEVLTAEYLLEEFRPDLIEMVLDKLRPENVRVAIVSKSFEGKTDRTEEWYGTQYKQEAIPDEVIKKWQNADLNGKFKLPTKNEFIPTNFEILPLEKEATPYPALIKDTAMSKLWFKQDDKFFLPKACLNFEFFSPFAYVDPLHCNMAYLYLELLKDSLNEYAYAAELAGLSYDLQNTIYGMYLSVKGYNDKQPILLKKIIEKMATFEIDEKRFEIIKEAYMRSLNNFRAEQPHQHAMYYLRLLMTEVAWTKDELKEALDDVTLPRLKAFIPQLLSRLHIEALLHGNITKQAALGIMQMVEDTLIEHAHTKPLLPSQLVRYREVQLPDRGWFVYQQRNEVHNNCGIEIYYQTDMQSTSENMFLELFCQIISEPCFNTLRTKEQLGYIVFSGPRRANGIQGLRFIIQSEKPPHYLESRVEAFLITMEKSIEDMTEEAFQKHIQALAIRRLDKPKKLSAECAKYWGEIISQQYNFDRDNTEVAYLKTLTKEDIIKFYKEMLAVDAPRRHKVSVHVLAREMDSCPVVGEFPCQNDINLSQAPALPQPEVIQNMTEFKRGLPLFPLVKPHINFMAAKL
Source text: Since D10 has been found as the strongest activator of IDE towards the proteolysis of insulin, we analyzed the binding site of the compound D10 for the further analysis. According to the computational results, D10 binds to Gln363 at the IDE exosite and His332 (Fig. 1D). We carried out site-directed mutagenesis by replacing these amino acids into Ala in order to verify that D10 indeed binds to this region via these amino acids. We first mutated Gln363 to Ala and then expressed and purified mutant protein through nickel resin. The effect of D10 on the proteolytic activity of mutant IDE (Gln363Ala) was measured towards FITC-insulin-mAb degradation. […] The activation was about 49-fold in the presence of D10 with wild type IDE (Fig. 2B). Although mutant IDE activity was less responsive to D10 compound compared to wild type IDE, it appeared as if D10 were interacting with IDE through […] and could enhance the activity of mutant IDE. […]
The utility of these novel compounds were tested on degradation of insulin by IDE. […] The proteolysis of insulin by IDE was monitored by measuring the changes in fluorescence, where the reaction was carried out with 100 nM of FITC- insulin-mAb and IDE (80 ng) in 100 µl KH2PO4 buffer at a pH of 7.3. […] The increase in fluorescence was monitored by using Fluoroskan Ascent FL microplate reader (Thermo).

COc1ccc(C2C(C(=O)Nc3ccccc3)=C(C)N=c3sc(=Cc4cn(C)nc4C)c(=O)n32)cc1 (centres unmarked) [Compound D3]
increase in magnitude of IDE activity for insulin degradation in HeLa cells (HeLa cells): ~65% | permeability through cell membrane (HeLa cells): permeable through cell membrane

Cc1nn(-c2ccccc2)c2nc(-c3cccc([N+](=O)[O-])c3)n3c4ccccc4nc3c2c1=O [Compound D10]
reduction of compound-enhanced activation with mutant IDE (mutant IDE (Gln363Ala)): 10 fold | increase in magnitude of IDE activity for insulin degradation in HeLa cells (HeLa cells): ~240% | permeability through cell membrane (HeLa cells): permeable through cell membrane
